Data reported in BindingDB's records for doi:10.1021/jm020122x (The Royal Danish School of Pharmacy, 2002).

Molecular target: Metabotropic glutamate receptor 2 (Rattus norvegicus) (UniProt P31421)
Assay: Compound was evaluated for the inhibitory activity against cloned Metabotropic glutamate receptor 2

Chain of Metabotropic glutamate receptor 2 (Rattus norvegicus) (P31421 whole entry, looked up): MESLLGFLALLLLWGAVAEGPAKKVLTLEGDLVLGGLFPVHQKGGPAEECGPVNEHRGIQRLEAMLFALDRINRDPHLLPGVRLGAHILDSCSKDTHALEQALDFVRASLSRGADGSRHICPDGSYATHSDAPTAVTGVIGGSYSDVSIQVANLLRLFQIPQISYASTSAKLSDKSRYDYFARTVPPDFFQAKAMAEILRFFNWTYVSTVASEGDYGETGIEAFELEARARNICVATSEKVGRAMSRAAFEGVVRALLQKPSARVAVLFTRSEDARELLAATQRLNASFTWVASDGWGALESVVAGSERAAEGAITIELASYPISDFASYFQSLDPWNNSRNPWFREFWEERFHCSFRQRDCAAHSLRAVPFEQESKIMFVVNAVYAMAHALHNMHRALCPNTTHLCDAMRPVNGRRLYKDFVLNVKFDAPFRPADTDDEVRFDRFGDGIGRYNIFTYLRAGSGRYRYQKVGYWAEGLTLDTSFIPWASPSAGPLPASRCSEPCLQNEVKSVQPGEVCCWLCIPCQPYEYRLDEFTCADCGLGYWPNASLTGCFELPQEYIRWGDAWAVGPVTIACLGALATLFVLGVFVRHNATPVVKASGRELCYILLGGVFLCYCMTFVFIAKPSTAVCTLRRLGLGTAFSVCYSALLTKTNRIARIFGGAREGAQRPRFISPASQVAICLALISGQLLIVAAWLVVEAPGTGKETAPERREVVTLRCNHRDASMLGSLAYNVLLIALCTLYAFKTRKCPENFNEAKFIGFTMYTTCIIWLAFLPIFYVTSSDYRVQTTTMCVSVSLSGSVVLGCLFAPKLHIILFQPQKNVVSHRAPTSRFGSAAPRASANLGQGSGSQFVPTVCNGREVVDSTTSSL

SMILES	EC50 [mM]
Cc1o[nH]c(=O)c1CC[C@@H](N)C(=O)O [(R)-2-Amino-4-(3-hydroxy-5-methyl-isoxazol-4-yl)-butyric acid]	> 1
Cc1o[nH]c(=O)c1CC[C@H](N)C(=O)O [2-Amino-4-(3-hydroxy-5-methyl-isoxazol-4-yl)-butyric acid(S-homo-AMPA)]	> 1
